This note sets out measurements from patent EP0639978B1, “PHARMACEUTICAL COMBINATION HAVING ANTINEOPLASTIC ACTIVITY” (priority 1991, dated 1992).

Counter-ions that a name gives are not always drawn.

One data set concerns P388 leukemia. Kind of data set: Therapeutic activity in P388 leukemia treatment (survival). Format: in vivo, BDFl female mice. To be noted: for ILS (%): survival increase vs untreated controls. On the procedure: The following tables and the enclosed figures refer to experiments carried out on BDFl mice inoculated with P388 leukemic cells and wherein the effect of DDP-Pd.HCl combination is compared, in terms of toxicity and therapeutic efficacy, with the one of the different components. From Pd-HCl toxicity results, which are reported in Table 1, the 50 mg/kg of Pd.HCl dose was selected for the investigations suited for the evaluation of DDP-Pd.HCl combination toxicity and therapeutic efficacy.

Data set [1] concerns kidneys of P388 leukemic BDFl mice. Kind of data set: Histological evaluation of renal damage. Format: in vivo. On the procedure:
Stromal connective, wherein rare and scattered fibroblasts were detected, appeared remarkably thickened with resulting intertubular space increase. Renal corpuscle morphology appeared in a good preservation state in the components thereof and a slight increase of the glomerular chamber was recognized in few corpuscles only.
Immediately after withdrawal, renal parenchyma was fixed with 2.5% glutaraldehyde in 0.1 M Na cacodylate buffer (pH = 7.4) for 120 min.
After washing in the same buffer, the samples were dehydrated with ethanol and embedded in Epon 812. LKB Ultratom III microtome 2 µm sections were stained with aqueous 1% toluidine blue.

The mark [2] stands for this setting: DDP 8 mg/kg i.p. days 1 and 5, vehicle H2O.
The mark [3] stands for this setting: DDP 16 mg/kg i.p. day 1, vehicle 0,9% NaCl.
[4] abbreviates: DDP 16 mg/kg i.p. day 1, vehicle H2O.
The mark [5] stands for this setting: Pd.HCl 50 mg/kg in H2O i.v., no DDP.

As for `N.N.[Cl][Pt][Cl]` [DDP, Cisplatin], the “Survivors on day 60 (alive/treated)” value is reported as 0/8 with P388 leukemia (setting [2]), 2/10 in the data set with P388 leukemia (setting [3]) and 0/10 in the data set on P388 leukemia (setting [4]). The “MST” value was determined as 7 days in the data set with P388 leukemia (DDP 8 mg/kg i.p. days 1 and 5, vehicle H2O, median survival time, untreated controls 12 days); 22 days in the data set with P388 leukemia (DDP 16 mg/kg i.p. day 1, vehicle 0,9% NaCl, median survival time, untreated controls 12 days); 5 days in the data set with P388 leukemia (DDP 16 mg/kg i.p. day 1, vehicle H2O, median survival time, untreated controls 12 days). Further, the “ILS (%)” value in the data set with P388 leukemia (setting [2]) is on record as -42%; in the data set with P388 leukemia (setting [3]), 83%; with P388 leukemia (setting [4]), -58%. The “Hystological evaluation of renal damage” value in data set [1] (8 mg/kg of DDP alone at days 1, 5 and 9, mice killed the 10th day, cortical zone) is listed as “renal parenchyma alterations”.

In the case of `CCN(CC)CCNC(=O)c1ccc(N)cc1` [Pd.HCl, procainamide hydrochloride], in the data set on P388 leukemia (setting [5]), the “MST” value was 13 days, the “Survivors on day 60 (alive/treated)” value was 0/8 and the “ILS (%)” value is given as 8,3%. The antitumor activity entry in the data set with P388 leukemia (procainamide by itself) is “no antitumor activity”. In data set [1] (mouse, in vivo, 50 mg/kg), the “Hystological evaluation of renal damage” value is “a picture similar to the one observed with DDP only”.
